ChEMBL document CHEMBL1201862, “PubChem BioAssay data set” (2004)
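Exposure lasted 48 hours, with cells grown in 96-well plates and compounds tested at five concentrations. The concentration for 50% growth inhibition is given as GI50.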 Calls of active or inactive are those of the source. Cut-off read from the data, not from the text of the source: active = GI50 up to about 1.1 µM and inactive = higher.

Experiments:
Assay in all cases: NCI tumour cell line growth inhibition, 48 h
SF-539 = test system: SF-539
T47D = test system: T47D
ACHN = test system: ACHN
Hs-578T = test system: Hs-578T
TK-10 = test system: TK-10
M14 = test system: M14
LOX IMVI = test system: LOX IMVI
CCRF-CEM = test system: CCRF-CEM
NCI/ADR-RES = test system: NCI/ADR-RES
UACC-257 = test system: UACC-257
U-251 = test system: U-251
OVCAR-4 = test system: OVCAR-4
MOLT-4 = test system: MOLT-4
MDA-MB-435 = test system: MDA-MB-435
RXF 393 = test system: RXF 393
NCI-H226 = test system: NCI-H226
MDA-MB-231 = test system: MDA-MB-231
NCI-H23 = test system: NCI-H23
COLO 205 = test system: COLO 205
OVCAR-3 = test system: OVCAR-3
786-0 = test system: 786-0
HL-60 = test system: HL-60
PC-3 = test system: PC-3
RPMI-8226 = test system: RPMI-8226
UACC-62 = test system: UACC-62
A549 = test system: A549
HT-29 = test system: HT-29
SF-268 = test system: SF-268
K562 = test system: K562
SNB-19 = test system: SNB-19
SF-295 = test system: SF-295
IGROV-1 = test system: IGROV-1
MCF7 = test system: MCF7
OVCAR-8 = test system: OVCAR-8
BT-549 = test system: BT-549
SK-OV-3 = test system: SK-OV-3
SK-MEL-28 = test system: SK-MEL-28
DU-145 = test system: DU-145
SR = test system: SR
HOP-92 = test system: HOP-92
A498 = test system: A498
SN12C = test system: SN12C
CAKI-1 = test system: CAKI-1
Malme-3M = test system: Malme-3M
SNB-75 = test system: SNB-75
SK-MEL-2 = test system: SK-MEL-2
SK-MEL-5 = test system: SK-MEL-5
HCT-116 = test system: HCT-116
EKVX = test system: EKVX
HCT-15 = test system: HCT-15
HOP-62 = test system: HOP-62
UO-31 = test system: UO-31
MDA-N = test system: MDA-N
OVCAR-5 = test system: OVCAR-5

**Q.** For `C[N+](C)(C)/C=N\c1cccc2c1CCCC2`, which GI50 (SF-539) is on record?
**A.** The GI50 was > 100 µM (inactive).

**Q.** And the GI50 (T47D)?
**A.** The GI50 was 69.3 µM (inactive).

**Q.** And the GI50 (ACHN)?
**A.** The GI50 was > 100 µM (inactive).

**Q.** What about the GI50 (Hs-578T) of the same molecule?
**A.** Its GI50 is > 100 µM (inactive).

**Q.** What about the GI50 (TK-10) of the same molecule?
**A.** The GI50 was > 100 µM (inactive).

**Q.** And the GI50 (M14)?
**A.** Its GI50 is > 100 µM (inactive).

**Q.** And the GI50 (LOX IMVI)?
**A.** Its GI50 is 55.3 µM (inactive).

**Q.** And the GI50 (CCRF-CEM)?
**A.** Its GI50 is 50.7 µM (inactive).

**Q.** And the GI50 (NCI/ADR-RES)?
**A.** Its GI50 is > 100 µM (inactive).

**Q.** What about the GI50 (UACC-257) of the same molecule?
**A.** Its GI50 is 45.1 µM (inactive).

**Q.** And the GI50 (U-251)?
**A.** Its GI50 is 88.3 µM (inactive).

**Q.** What about the GI50 (OVCAR-4) of the same molecule?
**A.** The GI50 was > 100 µM (inactive).

**Q.** And the GI50 (MOLT-4)?
**A.** Its GI50 is > 100 µM (inactive).

**Q.** What about the GI50 (MDA-MB-435) of the same molecule?
**A.** The GI50 was 90.8 µM (inactive).

**Q.** And the GI50 (RXF 393)?
**A.** The GI50 was > 100 µM (inactive).

**Q.** And the GI50 (NCI-H226)?
**A.** The GI50 was 58.2 µM (inactive).

**Q.** What about the GI50 (MDA-MB-231) of the same molecule?
**A.** Its GI50 is > 100 µM (inactive).

**Q.** And the GI50 (NCI-H23)?
**A.** The GI50 was 79.6 µM (inactive).

**Q.** What about the GI50 (COLO 205) of the same molecule?
**A.** The GI50 was 43.4 µM (inactive).

**Q.** And the GI50 (OVCAR-3)?
**A.** Its GI50 is > 100 µM (inactive).

**Q.** And the GI50 (786-0)?
**A.** The GI50 was > 100 µM (inactive).

**Q.** And the GI50 (HL-60)?
**A.** Its GI50 is 0.0885 µM (active).

**Q.** And the GI50 (PC-3)?
**A.** The GI50 was 39.8 µM (inactive).

**Q.** And the GI50 (RPMI-8226)?
**A.** The GI50 was 21.5 µM (inactive).

**Q.** What about the GI50 (UACC-62) of the same molecule?
**A.** Its GI50 is > 100 µM (inactive).

**Q.** And the GI50 (A549)?
**A.** The GI50 was 72.9 µM (inactive).

**Q.** And the GI50 (HT-29)?
**A.** Its GI50 is 58.1 µM (inactive).

**Q.** And the GI50 (SF-268)?
**A.** Its GI50 is > 100 µM (inactive).

**Q.** And the GI50 (K562)?
**A.** Its GI50 is 18 µM (inactive).

**Q.** And the GI50 (SNB-19)?
**A.** The GI50 was > 100 µM (inactive).

**Q.** What about the GI50 (SF-295) of the same molecule?
**A.** The GI50 was > 100 µM (inactive).

**Q.** And the GI50 (IGROV-1)?
**A.** The GI50 was 75.3 µM (inactive).

**Q.** And the GI50 (MCF7)?
**A.** The GI50 was > 100 µM (inactive).

**Q.** What about the GI50 (OVCAR-8) of the same molecule?
**A.** The GI50 was > 100 µM (inactive).

**Q.** And the GI50 (BT-549)?
**A.** Its GI50 is 57.1 µM (inactive).

**Q.** And the GI50 (SK-OV-3)?
**A.** Its GI50 is > 100 µM (inactive).

**Q.** What about the GI50 (SK-MEL-28) of the same molecule?
**A.** The GI50 was > 100 µM (inactive).

**Q.** What about the GI50 (DU-145) of the same molecule?
**A.** The GI50 was > 100 µM (inactive).

**Q.** And the GI50 (SR)?
**A.** Its GI50 is 16 µM (inactive).

**Q.** What about the GI50 (HOP-92) of the same molecule?
**A.** The GI50 was 17.7 µM (inactive).

**Q.** And the GI50 (A498)?
**A.** Its GI50 is > 100 µM (inactive).

**Q.** What about the GI50 (SN12C) of the same molecule?
**A.** Its GI50 is > 100 µM (inactive).

**Q.** And the GI50 (CAKI-1)?
**A.** Its GI50 is > 100 µM (inactive).

**Q.** And the GI50 (Malme-3M)?
**A.** The GI50 was > 100 µM (inactive).

**Q.** What about the GI50 (SNB-75) of the same molecule?
**A.** Its GI50 is 56.5 µM (inactive).

**Q.** And the GI50 (SK-MEL-2)?
**A.** Its GI50 is > 100 µM (inactive).

**Q.** And the GI50 (SK-MEL-5)?
**A.** Its GI50 is 41.2 µM (inactive).

**Q.** What about the GI50 (HCT-116) of the same molecule?
**A.** Its GI50 is > 100 µM (inactive).

**Q.** And the GI50 (EKVX)?
**A.** The GI50 was > 100 µM (inactive).

**Q.** And the GI50 (HCT-15)?
**A.** Its GI50 is greater than 100 µM.

**Q.** What about the GI50 (HOP-62) of the same molecule?
**A.** Its GI50 is > 100 µM (inactive).

**Q.** What about the GI50 (UO-31) of the same molecule?
**A.** The GI50 was > 100 µM (inactive).

**Q.** What about the GI50 (MDA-N) of the same molecule?
**A.** Its GI50 is > 100 µM (inactive).

**Q.** And the GI50 (OVCAR-5)?
**A.** Its GI50 is > 100 µM (inactive).
